{"source": "paper PMC6109063", "about": "(Nature Communications, 2018)", "biological_target": "T1, FgGcn5 (Fusarium graminearum, UniProt I1R9W6)", "T1 construct": "gene FGRAMPH1_01T00753", "T1 sequence (I1R9W6 1-396)": "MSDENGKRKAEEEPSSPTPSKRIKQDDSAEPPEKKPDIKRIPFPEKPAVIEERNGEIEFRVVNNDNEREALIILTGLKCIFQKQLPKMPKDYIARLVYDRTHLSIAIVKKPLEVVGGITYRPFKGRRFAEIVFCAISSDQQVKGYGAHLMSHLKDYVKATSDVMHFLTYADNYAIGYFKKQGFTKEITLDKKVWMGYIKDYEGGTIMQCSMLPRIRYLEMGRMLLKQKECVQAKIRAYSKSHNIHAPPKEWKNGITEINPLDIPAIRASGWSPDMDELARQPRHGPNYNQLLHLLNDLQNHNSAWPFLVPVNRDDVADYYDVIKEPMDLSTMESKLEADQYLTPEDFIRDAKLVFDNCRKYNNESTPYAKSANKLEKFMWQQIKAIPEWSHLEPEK", "conditions": "inhibitor; 30 ug/ml PCN; recombinant GST-H3 substrate, 5 mM acetyl-CoA, Tris-HCl pH 8.0, 37 C, 45 min"}
{"smiles": "NC(=O)c1cccc2nc3ccccc3nc12", "note": "[PCN, phenazine-1-carboxamide]", "values": [{"measurement": "in vitro histone H3 acetylation assay, immunoblot (H3 pan-acetyl and H3K18ac)", "value": "demonstrating that PCN was able to inhibit the HAT activity of FgGcn5 in vitro"}]}
